These results are taken from patent US20120130060A1, “Modified antisense oligopeptides with anticancer properties and method of obtaining them” (priority 2010, published 2012).

The LD50 is the dose expected to kill half of the subjects tested. Read a low LD50 as a more toxic substance. In general, ED50 refers to the dose that gives a 50% effect, or the effect in half of the subjects.

Data set [1] is described as follows: Average lethal intravenous dose in rats. As to conditions: both, rat, in vivo.
Description: The calculation of the average lethal dose was made according to B. M. Shtabskiy's methods with the use of the equation:
where: • X1 and X2 are the values of the two extreme of the three doses studied that have an effect on more or less than 50% of the animals; the third dose is the intermediate; • Y1 ? Y2 are the lethality percentages corresponding to doses X1 and X2; • ΣY— is the sum of the three doses studied; the number of doses used in the calculations is equal to 3.
Then d, the average margin of error for the average lethal dose was found through use of the Miller-Tainter formula:
N is the total number of animals in the groups in which even one animal died or survived, and the confidence ranges were established.
The nature of data set [2]: ED50 and therapeutic index, comparative characteristics of Anticanum and Taxotere. The class given is in vivo.

In the case of `CC(=O)O[C@@]12CO[C@@H]1C[C@H](O)[C@@]1(C)C(=O)[C@H](O)C3=C(C)[C@@H](OC(=O)[C@H](O)[C@@H](NC(=O)OC(C)(C)C)c4ccccc4)C[C@@](O)([C@@H](OC(=O)c4ccccc4)[C@H]21)C3(C)C` [Taxotere], in data set [1], the LD50 is 0.12 mg/kg. The molecule also registered an ED50 in data set [2] of 0.035 mg/kg.
